The values below come from US5922697A, “Compounds, compositions and methods for inhibiting the binding of proteins containing an SH2 domain to cognate phosphorylated proteins” (Warner-Lambert Company, priority 1998, dated 1999).

Structures are written as SMILES. Square brackets hold non-standard residues; d marks the D form. Peptide text beside a SMILES is read from it. * marks the point of attachment. pY = N[C@@H](Cc1ccc(OP(=O)(O)O)cc1)C(=O)O; NHPhenethyl = c1ccc(CCN*)cc1

Broadly, the IC50 is the point on the concentration scale where inhibition reaches its midpoint.

The target in one assay is T1, Src SH2 (Homo sapiens, UniProt P12931).
T1 construct: glutathione-S-transferase(GST)-Src SH2 fusion protein
T1 sequence (P12931 151-248 limits assumed): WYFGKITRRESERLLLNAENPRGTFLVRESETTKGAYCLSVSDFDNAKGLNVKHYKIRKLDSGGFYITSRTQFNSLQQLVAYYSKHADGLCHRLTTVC
The experiment in a line: Inhibition of 125I-phosphopeptide binding to immobilized Src SH2. Particulars: IC50, SRC SH2 Binding, competitive 125I-phosphopeptide displacement, GST-Src SH2 fusion protein, pH 7.5, room temperature, 20 minutes. The protocol:
The binding affinities of compounds of the present invention to Src SH2 was determined using a competitive radiolabeled phosphopeptide displacement assay.
Binding was performed at room temperature for 20 minutes while continuously inverting the plate. […] Results are expressed as IC50 values in Table 1 below.
With `CC(=O)N[C@@H](Cc1ccc(OP(=O)(O)O)cc1)C(=O)N[C@@H](CCC(=O)O)C(=O)NCCCCC(C)C` (relative stereo) [Example 37, [S -(R*,R*)]-4-[2-Acetylamino-3-(4-phosphonooxy-phenyl)-propionylamino]-4-(5-methyl-hexylcarbamoyl)-butyric acid], the IC50 is 6.7 µM.

`CC(=O)N[C@@H](Cc1ccc(OP(=O)(O)O)cc1)C(=O)N[C@@H](CCC(=O)O)C(=O)N[C@@H](C)CC1CCCCC1` [Example 2, 4-[(S)-2-Acetylamino-3-(4-phosphonooxy-phenyl)-(S)-propionylamino]-4-(2-cyclohexyl-(S)-1-methylethylcarbamoyl)-butyric acid] yielded an IC50 of 2.4 µM. As to `CC(=O)N[C@@H](Cc1ccc(OP(=O)(O)O)cc1)C(=O)N[C@@H](CCC(=O)O)C(=O)N(C)[C@@H](C)CC1CCCCC1` [Example 3], the IC50 is 2.3 µM. Take `CNC(=O)N[C@@H](Cc1ccc(OP(=O)(O)O)cc1)C(=O)N[C@@H](CCC(=O)O)C(=O)N(C)CCCC1CCCCC1` [Example 7, [S-(R*,R*)]-4-[(3-Cyclohexyl-propyl)-methyl-carbamoyl]-4-[2-(3-methyl-ureido)-3-(4-phosphonooxy-phenyl)-propionylamino]-butyric acid]: the IC50 was 2 µM. `CCCC[C@H](NC(=O)[C@H](Cc1ccc(OP(=O)(O)O)cc1)NC(C)=O)C(=O)N(C)CCCC1CCCCC1` [Example 9, [S-(R*,R*)]-Phosphoric acid mono-[4-(2-acetylamino-2-{1-[(3-cyclohexyl-propyl)-methyl-carbamoyl]-pentylcarbamoyl}-ethyl)-phenyl] ester] came in with an IC50 of 6.2 µM. As to `CC(=O)N[C@@H](Cc1ccc(OP(=O)(O)O)cc1)C(=O)N[C@@H](CCC(=O)O)C(=O)NCCc1cccc2c1CCCC2` [Example 13, [S-(R* ,R*)]-4-[2-Acetylamino-3-(4-phosphonooxy-phenyl)-propionylamino]-4-[2-(5,6,7,8-tetrahydro-naphthalen-1-yl)-ethylcarbamoyl]-butyric acid], the IC50 amounted to 4.4 µM. Turning to `CC(=O)N[C@@H](Cc1ccc(OP(=O)(O)O)cc1)C(=O)N[C@@H](CCC(=O)O)C(=O)NCc1cccc2ccccc12` [Example 15, [S-(R*,R*)]-4-[2-Acetylamino-3-(4-phosphonooxy-phenyl)-propionylamino]-4-[(naphthalen-1-ylmethyl)-carbamoyl]-butyric acid], the IC50 was 7 µM. The same measure, in the same setting: for `CC(=O)N[C@@H](Cc1ccc(OP(=O)(O)O)cc1)C(=O)N[C@@H](CCC(=O)O)C(=O)NCCc1ccccc1` [Example 16, [S-(R*,R*)]-4-[2-Acetylamino-3-(4-phosphonooxy-phenyl)-propionylamino]-4-phenethylcarbamoyl-butyric acid] (Ac-[pY]-Glu-NHPhenethyl) the value was 9.8 µM; for `CC(=O)N[C@@H](Cc1ccc(OP(=O)(O)O)cc1)C(=O)N[C@@H](CCC(=O)O)C(=O)N(C)[C@@H](C)Cc1ccccc1` [Example 17, 4-[(S)-2-Acetylamino-3-(4-phosphonooxy-phenyl)-(S)-propionylamino]-4-[methyl-((S)-1-methyl-2-phenylethyl)-carbamoyl]-butyric acid], 3.2 µM; for `CC(=O)N[C@@H](Cc1ccc(OP(=O)(O)O)cc1)C(=O)N[C@@H](CCC(=O)O)C(=O)N[C@@H](C)Cc1ccccc1` [Example 18, 4-[(S)-2-Acetylamino-3-(4-phosphonooxy-phenyl)-(S)-propionylamino]-4-((S)-1-methyl-2-phenylethylcarbamoyl)-butyric acid], 3.3 µM. `CC(=O)N[C@@H](Cc1ccc(OP(=O)(O)O)cc1)C(=O)N[C@@H](CCC(=O)O)C(=O)N(C)CCCc1ccccc1` [Example 19, [S-(R*,R*)]-4-[2-Acetylamino-3-(4-phosphonooxy-phenyl)-propionylamino]-4-[methyl-(3-phenyl-propyl)-carbamoyl]-butyric acid] came in with an IC50 of 5.6 µM. `CC(=O)N[C@@H](Cc1ccc(OP(=O)(O)O)cc1)C(=O)N[C@@H](CCC(=O)O)C(=O)NCCc1ccc(C)cc1` [Example 22, [S-(R*,R*)]-4-[2-Acetylamino-3-(4-phosphonooxy-phenyl)-propionylamino]-4-(2-p-tolyl-ethylcarbamoyl)-butyric acid]: the IC50 was 8.3 µM. `COc1ccccc1CCN(C)C(=O)[C@H](CCC(=O)O)NC(=O)[C@H](Cc1ccc(OP(=O)(O)O)cc1)NC(C)=O` [Example 23, [S-(R*,R*)]-4-[2-Acetylamino-3-(4-phosphonooxy-phenyl)-propionylamino]-4-{[2-(2-methoxy-phenyl)-ethyl]-methyl-carbamoyl}-butyric acid] gave an IC50 of 6.2 µM. With `CC(=O)N[C@@H](Cc1ccc(OP(=O)(O)O)cc1)C(=O)N[C@@H](C)C(=O)N(CCCC(=O)O)CCCC1CCCCC1` [Example 25, [S-(R*,R*)]-4-[{2-[2-Acetylamino-3-(4-phosphonooxy-phenyl)-propionylamino}-propionyl]-(3-cyclohexylpropyl)-amino]-butyric acid], the IC50 was 7.1 µM. Same read-out and setting: as for `CC(=O)N[C@@H](Cc1ccc(OP(=O)(O)O)cc1)C(=O)N[C@@H](C)C(=O)N(CCCC(=O)O)CCCc1ccccc1` [Example 26, [S-(R*,R*)]-4-[{2-[2-Acetylamino-3-(4-phosphonooxy-phenyl)-propionylamino}-propionyl]-(3-phenyl-propyl)-amino]-butyric acid], the figure is 9.8 µM; as for `CC(=O)N[C@@H](Cc1ccc(OP(=O)(O)O)cc1)C(=O)N[C@@H](C)C(=O)N(CCCCC(=O)O)CCCc1ccccc1` [Example 27, [S-(R*,R*)]-5-[{2-[2-Acetylamino-3-(4-phosphonooxy-phenyl)-propionylamino]-propionyl}-(3-phenyl-propyl)-amino]-pentanoic acid], 8 µM; as for `CCCCN(CCCc1ccccc1)C(=O)[C@H](C)NC(=O)[C@H](Cc1ccc(OP(=O)(O)O)cc1)NC(C)=O` [Example 28, [S-(R*,R*)]-Phosphoric acid mono-[4-(2-acetylamino-2-{1-[butyl-(3-phenyl-propyl)-carbamoyl]-ethylcarbamoyl}-ethyl)-phenyl] ester], 12 µM. `CC(=O)N[C@@H](Cc1ccc(OP(=O)(O)O)cc1)C(=O)N[C@@H](CCC(=O)O)C(=O)NCCCc1ccc(OCC(=O)O)cc1` [Example 29, [S-(R*,R*)]-4-[2-Acetylamino-3-(4-phosphonooxy-phenyl)-propionylamino]-4-[3-(4-carboxymethoxy-phenyl)-propylcarbamoyl]-butyric acid]: the IC50 was 8.3 µM. As for `CC(=O)N[C@@H](Cc1ccc(OP(=O)(O)O)cc1)C(=O)N[C@@H](CCC(=O)O)C(=O)N1CCC[C@H]1Cc1ccccc1` [Example 30], the IC50 amounted to 5.5 µM. For the compound `CC(=O)N(C)C(Cc1ccc(OP(=O)(O)O)cc1)C(=O)N[C@@H](CCC(=O)O)C(=O)NCCCc1ccccc1` (stereo partly drawn) [Example 32, 4-[(RS)-2-(Acetyl-methyl-amino)-3-(4-phosphonooxy-phenyl)-(S)-propionylamino]-4-(3-phenylpropylcarbamoyl)-butyric acid], the IC50 was 9.2 µM. For the compound `CS(=O)(=O)N[C@@H](Cc1ccc(OP(=O)(O)O)cc1)C(=O)N[C@@H](CCC(=O)O)C(=O)NCCCc1ccccc1` [Example 33, [S-(R*,R*)]-4-[2-Methanesulfonylamino-3-(4-phosphonooxy-phenyl)-propionylamino]-4-(3-phenyl-propylcarbamoyl)-butyric acid], the IC50 worked out at 9.3 µM. Same read-out and setting: for `CCC(C)CCCNC(=O)[C@H](CCC(=O)O)NC(=O)[C@H](Cc1ccc(OP(=O)(O)O)cc1)NC(C)=O` (stereo partly drawn) [Example 38, [S-(R*,R*)]-4-[2-Acetylamino-3-(4-phosphonooxy-phenyl)-propionylamino]-4-(4-methyl-hexylcarbamoyl)-butyric acid] the value was 4.1 µM.

`NC(=O)c1cc(CNC(=O)c2ccc(OP(=O)(O)O)cc2)ccc1OCc1ccccc1` [Example 39, Phosphoric acid mono-[4-(4-benzyloxy-3-carbamoyl-benzylcarbamoyl)-phenyl] ester] had an IC50 of 9.7 µM. On to `Cc1cccc(COc2ccc(CNC(=O)c3ccc(OP(=O)(O)O)cc3)cc2C(N)=O)c1` [Example 40, Phosphoric acid mono-{4-[3-carbamoyl-4-(3-methyl-benzyloxy)-benzylcarbamoyl]-phenyl} ester], for which the IC50 turned out to be 7 µM. With `Cc1cc(C)cc(COc2ccc(CNC(=O)c3ccc(OP(=O)(O)O)cc3)cc2C(N)=O)c1` [Example 41, Phosphoric acid mono-{4-[3-carbamoyl-4-(3,5-dimethyl-benzyloxy)-benzylcarbamoyl]-phenyl} ester], the IC50 is 6.6 µM.

The same assay, now with this note: competitive 125I-phosphopeptide displacement, GST-Src SH2 fusion protein, pH 7.5, room temperature, 20 minutes; read-out: IC50, SRC SH2 Binding.
Turning to `CC(=O)N[C@@H](Cc1ccc(OP(=O)(O)O)cc1)C(=O)N[C@@H](CCC(=O)O)C(=O)NCCCc1ccccc1` [Example 14, [S-(R*,R*)]-4-[2-Acetylamino-3-(4-phosphonooxy-phenyl)-propionylamino]-4-(3-phenyl-propylcarbamoyl)-butyric acid], the IC50 was 10 µM. For `CC(=O)N[C@@H](Cc1ccc(OP(=O)(O)O)cc1)C(=O)N[C@@H](Cc1ccc(O)cc1)C(=O)NCCCc1ccccc1` [Example 20, [S-(R*,R*)]-Phosphoric acid mono-(4-{2-acetylamino-2-[2-(4-hydroxy-phenyl)-1-(3-phenyl-propylcarbamoyl)-ethyl-carbamoyl]-ethyl}-phenyl) ester], the IC50 is 20 µM.

The assay is the same for the next values; noted with them: read-out: IC50, SRC SH2 Binding; competitive 125I-phosphopeptide displacement, GST-Src SH2 fusion protein, pH 7.5, room temperature, 20 minutes.
As for `COc1ccccc1CCNC(=O)[C@H](CCC(=O)O)NC(=O)[C@H](Cc1ccc(OP(=O)(O)O)cc1)NC(C)=O` [Example 21, [S-(R*,R*)]4-[2-Acetylamino-3-(4-phosphonooxy-phenyl)-propionylamino]-4-[2-(2-methoxy-phenyl)-ethylcarbamoyl]-butyric acid], the IC50 was determined as 5.5 µM.
